Reference: patent US4701465A, “N-acylpyrrolidine derivative and synthesis and use thereof” (Suntory Limited, priority 1985, dated 1987)

What was measured:
[1] = molecular target: prolyl endopeptidase (Elizabethkingia meningoseptica, UniProt P27028); experiment: Measurement of anti-prolyl endopeptidase activity; type: biochemical; settings: substrate Z-glycyl-proline-β-naphthylamide, 0.1M phosphate buffer pH 7.06, absorbance at 410 nm
Description: The method of Yoshimoto and Tsuru (T. Yoshimoto and D. Tsuru, Agr. Biol. Chem. 42, 2417, 1978) was used to measure the anti-prolyl endopeptidase activities of compounds of the present invention. A mixture of 0.0025M Z-glycyl-proline-β-naphthylamide (0.25 ml), 0.1M phosphate buffer (pH, 7.06; 0.99 ml) and a solution of a particular anti-prolyl endopeptidase compound (0.01 ml) was incubated in a test tube at 37° C. for 3 minutes. Thereafter, 0.1 ml of a solution of prolyl endopeptidase (0.2 U/ml) was added and the mixture was heated at 35° C. for 10 minutes. After the reaction, 2.0 ml of Triton X-100 in 1M acetate buffer (pH, 4.0) was added to the reaction mixture until the final concentration of the surfactant was 10%. The mixture was left at room temperature for 15 minutes and the absorbance (a) at 410 nm was measured.
A sample for a blind test was prepared by using the buffer instead of the anti-prolyl endopeptidase compound and its absorbance (b) was also measured. The percent inhibition of prolyl endopeptidase was calculated by the formula: ((b-a)/b)×100, and the amount of a specific compound to achieve 50% inhibition IC50) was determined.

[2] = tested on: experimental amnesia caused in rats by scopolamine; experiment: Preventive effect against experimental amnesia caused in rats by scopolamine (passive avoidance learning, intraperitoneal administration); type: in vivo, Wister male rats; settings: 1 mg/kg i.p.; for No. of amnesic rats/No. of rats tested / percentage amnesia / Avoidance time 24 hrs. later / Avoidance time 48 hrs. later: scopolamine 3 mg/kg i.p. after learning; for preventive effect against scopolamine amnesia (in words): rats
Description: Several of the anti-prolyl endopeptidase compounds of the present invention were checked for their ability to prevent the inhibition of long-term memory fixation by scopolamine. Solutions of physiological saline that contained selected compounds of the present inventions in an amount of 1 mg/kg were administered intraperitoneally to Wister male rats (100-120 g). One hour after the administration, electric shocks were applied to the rats so that they would acquire passive avoidance learning. Immediately thereafter, scopolamine was administered intraperitoneally to each rat in an amount of 3 mg per kg of body weight.
The result of the test was assessed both 24 hours and 48 hours after the administration of scopolamine. The number of amnesic rats and of sound rats was counted for both the control group (rats which were not given the test compounds but to which scopolamine and physiological saline alone were administered intraperitoneally) and the treated group (rats to which both the test compound and scopolamine were administered).

prolyl endopeptidase, sequence (P27028 21-705): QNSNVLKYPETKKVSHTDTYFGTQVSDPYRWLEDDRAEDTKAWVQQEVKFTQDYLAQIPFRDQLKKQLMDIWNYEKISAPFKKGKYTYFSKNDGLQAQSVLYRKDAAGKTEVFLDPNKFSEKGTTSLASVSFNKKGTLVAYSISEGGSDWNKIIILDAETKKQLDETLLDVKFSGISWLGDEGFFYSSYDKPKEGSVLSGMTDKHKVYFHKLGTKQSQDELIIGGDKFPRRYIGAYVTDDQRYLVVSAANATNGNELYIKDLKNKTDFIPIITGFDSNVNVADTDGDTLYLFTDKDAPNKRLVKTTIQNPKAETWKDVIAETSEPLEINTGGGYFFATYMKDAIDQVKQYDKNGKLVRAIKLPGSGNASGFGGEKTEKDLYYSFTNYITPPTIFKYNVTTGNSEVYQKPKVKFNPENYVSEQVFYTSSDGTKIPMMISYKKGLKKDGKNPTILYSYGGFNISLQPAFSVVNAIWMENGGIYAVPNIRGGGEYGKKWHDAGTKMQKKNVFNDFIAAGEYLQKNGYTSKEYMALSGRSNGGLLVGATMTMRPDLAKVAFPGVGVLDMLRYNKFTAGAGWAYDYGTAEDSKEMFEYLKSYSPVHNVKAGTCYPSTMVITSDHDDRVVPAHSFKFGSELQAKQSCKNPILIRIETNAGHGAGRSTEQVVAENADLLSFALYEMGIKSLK

COC(=O)C1CCCN1C(=O)CC(c1ccccc1)c1ccccc1 (centres unmarked) [compound 22]
IC50 (amount of compound to achieve 50% inhibition of prolyl endopeptidase) [1]: 250 μg/test tube

COc1ccc(/C=C/C(=O)N2CCCC2C=O)cc1 (centres unmarked) [compound 39]
IC50 (amount of compound to achieve 50% inhibition of prolyl endopeptidase) [1]: 0.2 μg/test tube

COC(=O)C1CCCN1C(=O)/C=C/c1ccc(OC)cc1 (centres unmarked) [compound 37]
IC50 (amount of compound to achieve 50% inhibition of prolyl endopeptidase) [1]: 80 μg/test tube

COc1ccc(CCC(=O)N2CCCC2C=O)cc1 (centres unmarked) [SUAM1050]
No. of amnesic rats/No. of rats tested [2]: 5/10 | percentage amnesia [2]: 50% | Avoidance time 24 hrs. later [2]: 198.2 s | Avoidance time 48 hrs. later [2]: 203.5 s

CCC(C(=O)N1CCCC1C=O)c1ccccc1 (centres unmarked) [compound 27]
IC50 (amount of compound to achieve 50% inhibition of prolyl endopeptidase) [1]: 0.2 μg/test tube

O=CC1CCCN1C(=O)CCC(c1ccccc1)c1ccccc1 (centres unmarked) [compound 42]
IC50 (amount of compound to achieve 50% inhibition of prolyl endopeptidase) [1]: 0.35 μg/test tube

COC(=O)C1CCCN1C(=O)CCc1ccc(OC)cc1 (centres unmarked) [Compound No. 2]
IC50 (amount of compound to achieve 50% inhibition of prolyl endopeptidase) [1]: 51 μg/test tube

O=CC1CCCN1C(=O)Cc1ccc(Cl)cc1 (centres unmarked) [SUAM1052]
No. of amnesic rats/No. of rats tested [2]: 3/10 | percentage amnesia [2]: 30% | Avoidance time 24 hrs. later [2]: 223.1 s | Avoidance time 48 hrs. later [2]: 214.8 s

O=CC1CCCN1C(=O)CCOc1ccccc1 (centres unmarked) [Compound No. 21, N-(3-phenoxy)propionyl-prolinal]
IC50 (amount of compound to achieve 50% inhibition of prolyl endopeptidase) [1]: 2.5 μg/test tube

COC(=O)C1CCCN1C(=O)Cc1ccc(Cl)cc1 (centres unmarked) [compound 10]
IC50 (amount of compound to achieve 50% inhibition of prolyl endopeptidase) [1]: 72 μg/test tube

COC(=O)[C@@H]1CCCN1C(=O)CCOc1ccccc1 [Compound No. 19, N-(3-phenoxy)propionyl-proline methyl ester]
IC50 (amount of compound to achieve 50% inhibition of prolyl endopeptidase) [1]: 60 μg/test tube

COc1ccc(CCC(=O)N2CCCC2C=O)cc1 (centres unmarked) [compound 8]
IC50 (amount of compound to achieve 50% inhibition of prolyl endopeptidase) [1]: 1.0 μg/test tube

COc1ccc(/C=C/C(=O)N2CCCC2C=O)cc1 (centres unmarked) [SUAM1054]
No. of amnesic rats/No. of rats tested [2]: 5/10 | percentage amnesia [2]: 50% | Avoidance time 24 hrs. later [2]: 204.5 s | Avoidance time 48 hrs. later [2]: 199.7 s

CCC(C(=O)N1CCCC1C=O)c1ccccc1 (centres unmarked) [SUAM1066]
No. of amnesic rats/No. of rats tested [2]: 3/10 | percentage amnesia [2]: 30% | Avoidance time 24 hrs. later [2]: 268.4 s | Avoidance time 48 hrs. later [2]: 205.4 s

COC(=O)C1CCCN1C(=O)CCCc1ccc(Cl)cc1 (centres unmarked) [compound 12]
IC50 (amount of compound to achieve 50% inhibition of prolyl endopeptidase) [1]: 50 μg/test tube

COC(=O)C1CCCN1C(=O)Cc1ccc(OC)cc1 (centres unmarked) [Compound No. 1]
IC50 (amount of compound to achieve 50% inhibition of prolyl endopeptidase) [1]: 80 μg/test tube

CC(C)C(CCc1ccccc1)C(=O)N1CCCC1C=O (centres unmarked) [compound 33]
IC50 (amount of compound to achieve 50% inhibition of prolyl endopeptidase) [1]: > 5 μg/test tube

COC(=O)C1CCCN1C(=O)C(CCc1ccccc1)C(C)C (centres unmarked) [compound 31]
IC50 (amount of compound to achieve 50% inhibition of prolyl endopeptidase) [1]: > 200 μg/test tube

O=CC1CCCN1C(=O)CCC(c1ccccc1)c1ccccc1 (centres unmarked) [SUAM1090]
No. of amnesic rats/No. of rats tested [2]: 4/10 | percentage amnesia [2]: 40% | Avoidance time 24 hrs. later [2]: 232.8 s | Avoidance time 48 hrs. later [2]: 202.36 s

O=CC1CCCN1C(=O)CCC(=O)c1ccccc1 (centres unmarked) [compound 30]
IC50 (amount of compound to achieve 50% inhibition of prolyl endopeptidase) [1]: 0.1 μg/test tube

COc1ccc(CC(=O)N2CCCC2C=O)cc1 (centres unmarked) [compound 7]
IC50 (amount of compound to achieve 50% inhibition of prolyl endopeptidase) [1]: 3.0 μg/test tube

COC(=O)C1CCCN1C(=O)CCCc1ccc(OC)cc1 (centres unmarked) [compound 3]
IC50 (amount of compound to achieve 50% inhibition of prolyl endopeptidase) [1]: 180 μg/test tube

COC(=O)C1CCCN1C(=O)C(C)CCc1ccccc1 (centres unmarked) [compound 34]
IC50 (amount of compound to achieve 50% inhibition of prolyl endopeptidase) [1]: 80 μg/test tube

O=CC1CCCN1C(=O)CCCc1ccc(Cl)cc1 (centres unmarked) [compound 18]
IC50 (amount of compound to achieve 50% inhibition of prolyl endopeptidase) [1]: 1.5 μg/test tube

O=CC1CCCN1C(=O)CC(c1ccccc1)c1ccccc1 (centres unmarked) [compound 24]
IC50 (amount of compound to achieve 50% inhibition of prolyl endopeptidase) [1]: 0.1 μg/test tube

COC(=O)C1CCCN1C(=O)CCC(=O)c1ccccc1 (centres unmarked) [compound 28]
IC50 (amount of compound to achieve 50% inhibition of prolyl endopeptidase) [1]: 200 μg/test tube

O=CC1CCCN1C(=O)CCc1ccc(Cl)cc1 (centres unmarked) [compound 17]
IC50 (amount of compound to achieve 50% inhibition of prolyl endopeptidase) [1]: 1.0 μg/test tube

O=CC1CCCN1C(=O)CCC(=O)c1ccccc1 (centres unmarked) [SUAM1055]
preventive effect against scopolamine amnesia (in words) [2]: particularly remarkable effects | No. of amnesic rats/No. of rats tested [2]: 0/10 | percentage amnesia [2]: 0% | Avoidance time 24 hrs. later [2]: 300.0 s | Avoidance time 48 hrs. later [2]: 300.0 s

COC(=O)C1CCCN1C(=O)CCc1ccc(Cl)cc1 (centres unmarked) [compound 11]
IC50 (amount of compound to achieve 50% inhibition of prolyl endopeptidase) [1]: 30 μg/test tube

CC(CCc1ccccc1)C(=O)N1CCCC1C=O (centres unmarked) [compound 36]
IC50 (amount of compound to achieve 50% inhibition of prolyl endopeptidase) [1]: 1.0 μg/test tube

CCC(C(=O)N1CCCC1C(=O)OC)c1ccccc1 (centres unmarked) [compound 25]
IC50 (amount of compound to achieve 50% inhibition of prolyl endopeptidase) [1]: 510 μg/test tube

O=CC1CCCN1C(=O)Cc1ccc(Cl)cc1 (centres unmarked) [compound 16]
IC50 (amount of compound to achieve 50% inhibition of prolyl endopeptidase) [1]: 0.5 μg/test tube

COc1ccc(CCCC(=O)N2CCCC2C=O)cc1 (centres unmarked) [SUAM1051]
preventive effect against scopolamine amnesia (in words) [2]: particularly remarkable effects | No. of amnesic rats/No. of rats tested [2]: 0/10 | percentage amnesia [2]: 0% | Avoidance time 24 hrs. later [2]: 300.0 s | Avoidance time 48 hrs. later [2]: 300.0 s

O=CC1CCCN1C(=O)CC(c1ccccc1)c1ccccc1 (centres unmarked) [SUAM1065]
preventive effect against scopolamine amnesia (in words) [2]: particularly remarkable effects | No. of amnesic rats/No. of rats tested [2]: 1/10 | percentage amnesia [2]: 10% | Avoidance time 24 hrs. later [2]: 284.6 s | Avoidance time 48 hrs. later [2]: 267.2 s

COc1ccc(CCCC(=O)N2CCCC2C=O)cc1 (centres unmarked) [compound 9]
IC50 (amount of compound to achieve 50% inhibition of prolyl endopeptidase) [1]: 0.05 μg/test tube
